A short description of data set [1]: Phase solubility studies with HP-β-CD in KRB buffer. Particulars: for solubility at 7 d: KRB buffer, 37 °C, thermodynamic from solid. In kind it is physicochemical. The procedure:
Phase solubility studies were performed in KRB buffer solutions (pH 7.4), as described by Higuchi and Connors. […] Samples were centrifuged (4000 rpm, 5 min) and filtered (Nylon filter; 0.45 µm) prior to the psoralens content analysis by the HPLC-DAD validated method.
The complexation efficiency (CE) was determined by using the slope of the linear phase solubility diagram as follows:CE = slope/(1 − slope)(2)

Data set [2] deals with rat jejunum. Kind of data set: Ex vivo rat jejunal permeability (MTS-Snapwell system, A–B). It is filed as in vitro ADME. The protocol: (§1) Study protocol for female Wistar rats (12–14 weeks old) was approved by the Ethics Committee on Animal Use (#066/15) at the Federal University of Goiás, Goiás, Brazil. One week before starting the experiment, all animals were acclimatized at controlled conditions with regulated access to a standard food (22 ± 2 °C, 12-h light/dark cycle). After this, they fasted for 12 h with free access to water. All animals (body weight = 215 ± 12 g) were then anesthetized using a mixture of ketamine/xylazine (90.0/7.5 mg/kg). Rat jejunum was removed and immediately placed into an ice-cold KRB solution. The jejunum (20 mm) seromuscular layer was carefully stripped off from the membrane and mounted in the MTS-Snapwell system. Next, unidirectional drug transport was measured from the apical to basolateral side (A–B).
(§2) Sample aliquots (400 µL) were placed in the donor compartment (apical side).
(§3) Drug transport was measured by collecting samples (500 µL) from the receiver chamber (basolateral side) at 0, 20, 30, 40, 60, 90, and 120 min. Receiver samples were replaced with equal volume of fresh KRB solution (37 °C). The system was maintained on a plate shaker (60 rpm) inside a humidified incubator (37 ± 0.5 °C) in a controlled atmosphere (95% O2, and 5% CO2), before and during the transport experiment. Samples were analyzed by the HPLC-DAD validated method.
(§4) The change in donor and receiver concentrations was taken into consideration when the apparent permeability coefficient (Papp) was calculated using to the following equation:Papp = dQ/dt(1/CD A)(3) where dQ/dt is the appearance rate of the drug in the receiver compartment, CD is the concentration of the drug in the donor chamber at each sample interval, and A is the surface area (0.1 cm^2) of the tissue segment. The initial concentration of the drug in the donor compartment was determined experimentally, and donor concentrations at each time point were obtained by the calculation of the mass balance.
(§5) Integrity of intestinal tissue segments mounted in the MTS-Snapwell system was assessed by measuring the transepithelial electrical resistance (TEER) using the KRB solution at 37 °C as the conducting medium. Viable intestinal segments (>30 Ω·cm^2) were mounted on the permeation apparatus and subjected to a preincubation period (30 min) under a controlled atmosphere (95% O2 and 5% CO2) before starting the experiments.

Assay in data set [3]: as above
In kind it is in vitro ADME. To be noted: female, Wistar, rat. The protocol: as §1, §2, §3, §4, §5

Data set [4] in a line: Preliminary in vivo studies in rats (plasma AUC). To be noted: rat, n = 3.
A short description of data set [5]: Ex vivo rat jejunal permeability (MTS-Snapwell system, A–B). It is filed as in vitro ADME. Particulars: female, Wistar, pH 7.4, pure compound, KRB, without stirring (0 rpm).
In data set [6] the test system is jejunal tissue. Kind of data set: Viability of intestinal tissue segments by TEER. It is filed as in vitro ADME, rat. The procedure:
The effects of HP-β-CD on the viability of intestinal tissue segments mounted in the MTS-Snapwell system was evaluated during incubation time (120 min) at 37 °C. For this purpose, TEER values in the presence and absence of 20% (w/w) HP-β-CD were compared.
as §5

Data set [7] concerns rat jejunum. The arrangement: method as in PMID 32942105. To be noted: 0.58 mM; BCS low/high permeability class boundary marker; n = 41; cited from earlier work.
Where [8] appears, read: pH 7.4, marker in EBGT plant extract, HP-β-CD 70 mM.
Where [9] appears, read: pH 7.4, marker in EBGT plant extract, KRB solution without HP-β-CD.
Where [10] appears, read: pH 7.4, pure compound, HP-β-CD 70 mM.
Where [11] appears, read: pH 7.4, pure compound, KRB solution without HP-β-CD, stirring 60 rpm, 120 min.

Converted amounts (≈) assume the structure as drawn. “And” between values parts separate entries of the source, which are not always exact repeats. Equal values may be shown once. Read-outs that look alike come from different tables or passages of the source.

As a reminder, the solubility is the dissolved amount per volume that the medium holds. As usually defined, the Papp is a coefficient for how fast a substance crosses the barrier. Broadly, the AUC is concentration integrated over time. A low value points to low exposure. For `COc1c2ccoc2cc2oc(=O)ccc12` [5-MOP, 5-methoxypsoralen], the “Kc fold lower in EBGT compared to pure compound” value in data set [1] (EBGT marker vs pure compound) is reported as ~1.8 fold. Besides, the solubility at 7 d in data set [1] (pH 7.4, aqueous buffer, marker in EBGT plant extract (9.0 mg/mL), KRB pH 7.4, 37 °C, absence of HP-β-CD, read-out: intrinsic solubility (S0) in EBGT) turned out to be 38 ± 2 µM (≈ 8.22 µg/mL); in data set [1] (pH 7.4, aqueous buffer, pure compound, KRB buffer pH 7.4, 37 °C, absence of HP-β-CD, read-out: intrinsic solubility (S0)) it was 32 ± 1 µM (≈ 6.92 µg/mL); in data set [1] (pH 7.4, aqueous with cosolvent or surfactant or cyclodextrin, aqueous solubility with 70 mM HP-β-CD in plant extract, marker in EBGT, 70 mM HP-β-CD, KRB pH 7.4, 37 °C) it was 720 ± 40 µM (≈ 156 µg/mL); in data set [1] (pH 7.4, aqueous with cosolvent or surfactant or cyclodextrin, aqueous solubility with 70 mM HP-β-CD, pure compound, 70 mM HP-β-CD, KRB pH 7.4, 37 °C), 930 ± 7 µM (≈ 201 µg/mL). For the same compound, the “complexation efficiency (CE) with HP-β-CD in EBGT” value in data set [1] (marker in EBGT plant extract) stood at 0.010 ± 0.001. Moreover, the “intrinsic solubility (S0) in EBGT” value in data set [1] (marker in EBGT plant extract (9.0 mg/mL), KRB pH 7.4, 37 °C, absence of HP-β-CD) worked out at 40 ± 2 µM. Moreover, in data set [1] (marker in EBGT plant extract, KRB pH 7.4, 37 °C), the “Kc (stability constant) with HP-β-CD in EBGT” value was determined as 251.2 ± 1.4 M⁻¹. The compound further came in with a solubility increase in data set [1] (marker in EBGT, 70 mM HP-β-CD vs no HP-β-CD) of 18 fold. Also, the “complexation efficiency (CE) with HP-β-CD” value in data set [1] (pure compound) is 0.014 ± 0.001. Besides, the “phase solubility diagram profile (Higuchi-Connors)” value in data set [1] (pure compound with HP-β-CD, indicates 1:1 complex) is listed as “AL type”. For the same compound, in data set [1] (pure compound, KRB buffer pH 7.4, 37 °C, absence of HP-β-CD), the “intrinsic solubility (S0)” value amounted to 30 ± 1 µM. Also, the “Kc (stability constant) of HP-β-CD inclusion complex” value in data set [1] (pure compound, KRB pH 7.4, 37 °C, 1:1 complex) is 449.9 ± 16.6 M⁻¹ and < 500 M⁻¹. The entries for the “permeability rate decrease after adding HP-β-CD” value in data set [2] (EBGT markers) and in data set [2] (pure standards) were 4 fold and 6 fold, respectively. Moreover, the Papp at 120 min in data set [3] (setting [8]) was determined as 3.04 ± 1.19 ×10⁻⁶ cm/s; in data set [3] (setting [9]), 10.7 ± 1.73 ×10⁻⁶ cm/s; in data set [3] (setting [10]) it was 2.05 ± 0.81 ×10⁻⁶ cm/s; in data set [3] (setting [11]) it was 11.2 ± 3.28 ×10⁻⁶ cm/s; in data set [5], 7.8 ± 1.91 ×10⁻⁶ cm/s. Moreover, the AUC in data set [4] (EBGT in HP-β-CD 70 mM solution, dose 0.12 mg/kg) is 377 ng·h/mL; in data set [4] (EBGT uncomplexed, dose 1.5 g/kg), 516 ng·h/mL.
Consider `CC(O)COC[C@H]1O[C@@H]2O[C@H]3[C@H](O)[C@@H](O)[C@@H](O[C@H]4[C@H](O)[C@@H](O)[C@@H](O[C@H]5[C@H](O)[C@@H](O)[C@@H](O[C@H]6[C@H](O)[C@@H](O)[C@@H](O[C@H]7[C@H](O)[C@@H](O)[C@@H](O[C@H]8[C@H](O)[C@@H](O)[C@@H](O[C@H]1[C@H](O)[C@H]2O)O[C@@H]8COCC(C)O)O[C@@H]7COCC(C)O)O[C@@H]6COCC(C)O)O[C@@H]5COCC(C)O)O[C@@H]4COCC(C)O)O[C@@H]3COCC(C)O` (stereo partly drawn) [HP-β-CD, 2-hydroxypropyl-β-cyclodextrin], for which the TEER after incubation in data set [6] (20% (w/w) HP-β-CD, 120 min, 37 °C, n = 16, control KRB 32 ± 9, p = 0.99) was 29 ± 7 Ω·cm^2. Further, the “effect on viability of jejunal tissue” value in data set [6] (HP-β-CD at high concentration (20% w/w)) is listed as “does not affect the viability of jejunal tissue”.
As to `O=c1ccc2cc3ccoc3cc2o1` [PSO, Psoralen], the “permeability rate decrease after adding HP-β-CD” value came to 4 fold in data set [2] (EBGT markers) and 6 fold in data set [2] (pure standards). Also, the apparent permeability coefficient (Papp) at 120 min in data set [3] (setting [8]) stood at 3.86 ± 1.81 ×10⁻⁶ cm/s; in data set [3] (setting [9]), 17.6 ± 1.35 ×10⁻⁶ cm/s; in data set [3] (setting [10]) it was 3.82 ± 0.62 ×10⁻⁶ cm/s; in data set [3] (setting [11]) it was 21.4 ± 3.81 ×10⁻⁶ cm/s; in data set [5], 20.5 ± 2.82 ×10⁻⁶ cm/s.
As for `COCCc1ccc(OCC(O)CNC(C)C)cc1` (centres unmarked) [metoprolol], the Papp in data set [7] was 6.21 ± 2.63 × 10^−6 cm/s.

The values are drawn from publication PMC9322082, “Improvement in Solubility–Permeability Interplay of Psoralens from Brosimum gaudichaudii Plant Extract upon Complexation with Hydroxypropyl-β-cyclodextrin” (Molecules, 2022).
